Experimental findings from patent publication US20120077760A1, “NOVEL SALTS OF SITAGLIPTIN” (LEK Pharmaceuticals D.D., priority 2009, published 2012) are described below.

The nature of this data set: Solubility of sitagliptin salts in water at 25° C.

Description: The solubility in water was measured using Crysta™ from Avantium Technologies.

On to `N[C@@H](CC(=O)N1CCn2c(nnc2C(F)(F)F)C1)Cc1cc(F)c(F)cc1F.O=C[C@H](O)[C@@H](O)[C@H](O)[C@H](O)C(=O)O` [D-Glucuronate, Sitagliptin D-Glucuronate], for which the “solubility in water (in words)” value is reported as “very good”. Further, for the setting “25° C.”, the Solubility in water was >500 mg/mL.

On to `N[C@@H](CC(=O)N1CCn2c(nnc2C(F)(F)F)C1)Cc1cc(F)c(F)cc1F` [Dihydrogen phosphate, sitagliptin dihydrogen phosphate, reference compound], for which the solubility (as a rule, the dissolved amount per volume that the medium holds) (25 °C, thermodynamic from solid) lay within 100 to 120 mg/mL.

For the compound Sitagliptin Oxalate, the “solubility in water (in words)” value is reported as “very good”.
